According to US6737383B1, “Herbicidal oxadiazolidines” (priority 1999, dated 2004):

Legend:
purple nutsedge = test: Test B pre/postemergence purple nutsedge; format: in vivo, Cyperus rotundus
Method in brief: (§1)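 Response is a visual 0-to-10 score relative to untreated plants, where 0 means no effect and 10 means complete control, taken twelve to sixteen days after application. Treatments went onto soil at planting and onto foliage of 1- to 4-leaf plants, using a surfactant-containing non-phytotoxic solvent.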

surinam grass = test: Test B pre/postemergence surinam grass; format: in vivo, Brachiaria decumbens
Method in brief: as §1

rape = test: Test B pre/postemergence rape; format: in vivo, Brassica napus
Method in brief: as §1

crabgrass = test: Test B pre/postemergence crabgrass; format: in vivo, Digitaria sanguinalis
Method in brief: as §1

morningglory = test: Test B pre/postemergence morningglory; format: in vivo, Ipomoea hederacea
Method in brief: as §1

velvetleaf = test: Test B pre/postemergence velvetleaf; format: in vivo, Abutilon theophrasti
Method in brief: as §1

sugar beet = test: Test B pre/postemergence sugar beet; format: in vivo, Beta vulgaris
Method in brief: as §1

corn = test: Test B pre/postemergence corn; format: in vivo, Zea mays
Method in brief: as §1

cocklebur = test: Test B pre/postemergence cocklebur; format: in vivo, Xanthium strumarium
Method in brief: as §1

pigweed = test: Test B pre/postemergence pigweed; format: in vivo, Amaranthus retroflexus
Method in brief: as §1

wheat = test: Test B pre/postemergence wheat; format: in vivo, Triticum aestivum
Method in brief: as §1

wild oat = test: Test B pre/postemergence wild oat; format: in vivo, Avena fatua
Method in brief: as §1

giant foxtail = test: Test B pre/postemergence giant foxtail; format: in vivo, Setaria faberii
Method in brief: as §1

soybean = test: Test B pre/postemergence soybean; format: in vivo, Glycine max
Method in brief: as §1

bedstraw = test: Test B pre/postemergence bedstraw; format: in vivo, Galium aparine
Method in brief: as §1

blackgrass = test: Test B pre/postemergence blackgrass; format: in vivo, Alopecurus myosuroides
Method in brief: as §1

[1] = Postemergence, Rate 62 g/ha, scale 0 to 10, 0 is no effect, 10 is complete control
[2] = Postemergence, Rate 125 g/ha, scale of 0 to 10 where 0 is no effect and 10 is complete control
[3] = Postemergence, Rate 500 g/ha, scale 0 (no effect) to 10 (complete control)
[4] = Rate 62 g/ha, Preemergence, scale 0 to 10
[5] = Rate 125 g/ha, Preemergence, scale 0 to 10 (0 no effect, 10 complete control)
[6] = Rate 250 g/ha, Postemergence, scale 0 to 10, 0 is no effect, 10 is complete control
[7] = Rate 500 g/ha, Preemergence, scale 0 to 10 (0 no effect, 10 complete control)
[8] = Preemergence, Rate 250 g/ha, scale 0 (no effect) to 10 (complete control)

CCOC(CC)n1c(=O)on(C(=O)N(c2ccccc2)C(C)C)c1=O (stereo not drawn) [Compound 773]
0: Plant response rating, Nutsedge (purple nutsedge; [1]) | Nutsedge plant response rating (purple nutsedge; [2]) | Nutsedge plant response rating (purple nutsedge; [3]) | Nutsedge plant response rating (purple nutsedge; [4]) | Nutsedge plant response rating (purple nutsedge; [5]) | Nutsedge plant response rating (purple nutsedge; [6]) | Nutsedge plant response rating (purple nutsedge; [7]) | Plant response rating, B. signalgrass (surinam grass; [1]) | B. signalgrass plant response rating (surinam grass; [2]) | B. signalgrass plant response rating (surinam grass; [8]) | B. signalgrass plant response rating (surinam grass; Rate 62 g/ha, Preemergence, scale 0 (no effect) to 10 (complete control)) | B. signalgrass plant response rating (surinam grass; [5]) | B. signalgrass plant response rating (surinam grass; [6]) | B. signalgrass plant response rating (surinam grass; Rate 500 g/ha, Postemergence, scale 0 to 10, 0 is no effect, 10 is complete control) | B. signalgrass plant response rating (surinam grass; [7]) | Plant response rating, Rape (rape; [1]) | Rape plant response rating (rape; [2]) | Rape plant response rating (rape; [3]) | Rape plant response rating (rape; [4]) | Rape plant response rating (rape; [5]) | Rape plant response rating (rape; [6]) | Rape plant response rating (rape; [7]) | Plant response rating, Crabgrass (crabgrass; [1]) | Crabgrass plant response rating (crabgrass; [2]) | Crabgrass plant response rating (crabgrass; [3]) | Crabgrass plant response rating (crabgrass; [8]) | Crabgrass plant response rating (crabgrass; [4]) | Crabgrass plant response rating (crabgrass; [5]) | Crabgrass plant response rating (crabgrass; [6]) | Crabgrass plant response rating (crabgrass; [7]) | Plant response rating, Morningglory (morningglory; [1]) | Morningglory plant response rating (morningglory; [2]) | Morningglory plant response rating (morningglory; [3]) | Morningglory plant response rating (morningglory; [4]) | Morningglory plant response rating (morningglory; [5]) | Morningglory plant response rating (morningglory; [6]) | Morningglory plant response rating (morningglory; [7]) | Plant response rating, Velvetleaf (velvetleaf; [1]) | Velvetleaf plant response rating (velvetleaf; [3]) | Velvetleaf plant response rating (velvetleaf; [4]) | Velvetleaf plant response rating (velvetleaf; [5]) | Velvetleaf plant response rating (velvetleaf; [6]) | Velvetleaf plant response rating (velvetleaf; [7]) | Plant response rating, Sugarbeets (sugar beet; [1]) | Sugarbeets plant response rating (sugar beet; [3]) | Sugarbeets plant response rating (sugar beet; [4]) | Sugarbeets plant response rating (sugar beet; [5]) | Sugarbeets plant response rating (sugar beet; [6]) | Sugarbeets plant response rating (sugar beet; [7]) | Plant response rating, Corn (corn; [1]) | Corn plant response rating (corn; [2]) | Corn plant response rating (corn; [3]) | Corn plant response rating (corn; [8]) | Corn plant response rating (corn; [4]) | Corn plant response rating (corn; [5]) | Corn plant response rating (corn; [6]) | Corn plant response rating (corn; [7]) | Plant response rating, Cocklebur (cocklebur; [1]) | Cocklebur plant response rating (cocklebur; [2]) | Cocklebur plant response rating (cocklebur; [3]) | Cocklebur plant response rating (cocklebur; [8]) | Cocklebur plant response rating (cocklebur; [4]) | Cocklebur plant response rating (cocklebur; [5]) | Cocklebur plant response rating (cocklebur; [6]) | Cocklebur plant response rating (cocklebur; [7]) | Plant response rating, Redroot pigweed (pigweed; [1]) | Redroot pigweed plant response rating (pigweed; [2]) | Redroot pigweed plant response rating (pigweed; [3]) | Redroot pigweed plant response rating (pigweed; [4]) | Redroot pigweed plant response rating (pigweed; [5]) | Redroot pigweed plant response rating (pigweed; [6]) | Redroot pigweed plant response rating (pigweed; [7]) | Plant response rating, Wheat (wheat; [1]) | Wheat plant response rating (wheat; [3]) | Wheat plant response rating (wheat; [4]) | Wheat plant response rating (wheat; [5]) | Wheat plant response rating (wheat; [6]) | Wheat plant response rating (wheat; [7]) | Plant response rating, Wild oats (wild oat; [1]) | Wild oats plant response rating (wild oat; [3]) | Wild oats plant response rating (wild oat; [4]) | Wild oats plant response rating (wild oat; [5]) | Wild oats plant response rating (wild oat; [6]) | Wild oats plant response rating (wild oat; [7]) | Plant response rating, Giant foxtail (giant foxtail; [1]) | Giant foxtail plant response rating (giant foxtail; [2]) | Giant foxtail plant response rating (giant foxtail; [3]) | Giant foxtail plant response rating (giant foxtail; [8]) | Giant foxtail plant response rating (giant foxtail; [4]) | Giant foxtail plant response rating (giant foxtail; [5]) | Giant foxtail plant response rating (giant foxtail; [6]) | Giant foxtail plant response rating (giant foxtail; [7]) | Plant response rating, Soybean (soybean; [1]) | Soybean plant response rating (soybean; [3]) | Soybean plant response rating (soybean; [4]) | Soybean plant response rating (soybean; [5]) | Soybean plant response rating (soybean; [6]) | Soybean plant response rating (soybean; [7]) | Plant response rating, Bedstraw (bedstraw; [1]) | Bedstraw plant response rating (bedstraw; [2]) | Bedstraw plant response rating (bedstraw; [3]) | Bedstraw plant response rating (bedstraw; [8]) | Bedstraw plant response rating (bedstraw; [4]) | Bedstraw plant response rating (bedstraw; [5]) | Bedstraw plant response rating (bedstraw; [6]) | Bedstraw plant response rating (bedstraw; [7]) | Plant response rating, Blackgrass (blackgrass; [1]) | Blackgrass plant response rating (blackgrass; [2]) | Blackgrass plant response rating (blackgrass; [3]) | Blackgrass plant response rating (blackgrass; [8]) | Blackgrass plant response rating (blackgrass; [4]) | Blackgrass plant response rating (blackgrass; [5]) | Blackgrass plant response rating (blackgrass; [6]) | Blackgrass plant response rating (blackgrass; [7])
